# According to patent US20160158179A1, “NANOEMULSION THERAPEUTIC COMPOSITIONS AND METHODS OF USING THE SAME” (THE REGENTS OF THE UNIVERSITY OF MICHIGAN, priority 2008, published 2016):
# Columns and labels:
# [1] = test system: H. influenzae clinical isolates; test: MIC and MBC susceptibility assays (CLSI); format: cell-based, Haemophilus influenzae
# [2] = test system: H. influenzae clinical isolates; settings: ATCC H. influenzae 49247 quality control isolate; acceptable QC range; cited from earlier work
# Acinetobacter baumannii [3] = test: MIC and MBC determination (CLSI, alamar blue)
# Pseudomonas aeruginosa [4] = test: MIC and MBC determination (CLSI, alamar blue), CF isolates
# Burkholderia cenocepacia = test: as above
# [5] = test system: Stenotrophomonas maltophilia; test: as above
# [6] = test system: Pseudomonas, Burkholderia, Acinetobacter and Stenotrophomonas; test: MIC and MBC determination (CLSI, alamar blue), all strains of Example 8
# Acinetobacter baumannii [7] = test: MIC determination, CLSI microdilution with alamar blue; format: cell-based
# [8] = test system: Stenotrophomonas maltophilia; test: as above; format: cell-based
# [9] = test system: IL1-β, IL-6, TNF-α, CINC-1, CINC-3, IL-10 and TGF-β; test: Dermal cytokine analysis (ELISA) of burn wound skin; format: in vivo, Sprague-Dawley rats
# Protocol: After drying, an occlusive dressing of sterile […] […] Stock nanoemulsion […] […] The occlusive dressing and TELFA was removed. […] Homogenates were centrifuged at 3000 g for 5 minutes and the supernatants collected and stored frozen at -80° C. until use. Rat IL1-β, IL-6, […]-10 and TGF-β were measured by sandwich enzyme-linked immunosorbent assay (ELISA) using antibodies and reagents from R&D Systems, Inc. (Minneapolis, Minn.). The assay was carried out in 96-well microplates (Immunoplate Maxisorb, Nunc, Neptune, N.J.) according to the kit instructions and samples were read using a microplate reader (Biotek Instruments, Winooski, Vt.) at 450 nm with a wavelength correction of 540 nm. Cytokine concentrations were determined using the plate reader software and a 7-point standard curve. Results were adjusted for previous dilution and expressed as pg/mL.
# Myeloperoxidase = test: Detection of neutrophil sequestration (myeloperoxidase assay); format: in vivo, Sprague-Dawley rats; settings: infected burn wound, 32 hours post-injury
# Protocol: The occlusive dressing and TELFA was removed.
# 100 mg of skin tissue was mechanically homogenized in 1 mL ice cold potassium phosphate buffer consisting of 115 mM monobasic potassium phosphate (Sigma Aldrich, Milwaukee, Wis.). Homogenates were centrifuged at 3000 g for 10 min at 4° C., the supernatants were removed and the pellets were re-suspended in 1 mL C-TAB buffer consisting of dibasic potassium phosphate, cetyltrimethylammonium bromide, and acetic acid (Sigma Aldrich, Milwaukee, Wis.). The suspensions were sonicated (Branson Sonifier 250, Danbury, Conn.) on ice for 40 seconds. Homogenates were centrifuged at 3000 g for 10 min at 4° C. and the supernatant collected. Supernatants were incubated in 60° C. water bath for 2 hours (Shaker Bath, 2568; Forma Scientific, Marietta, Ohio). Samples were stored at −80° C. until needed or assayed immediately.
# Pseudomonas aeruginosa [10] = test: MIC determination, CLSI microdilution with alamar blue; format: cell-based; settings: Pseudomonas aeruginosa (n = 5); nanoemulsions in the presence of 5 mM EDTA; in µg/mL
# Stenotrophomonas strains = test: Checkerboard synergy study (FIC/FBC index); format: cell-based, Stenotrophomonas maltophilia; settings: in combination with P4075EC+EDTA
# Acinetobacter strains = test: Checkerboard synergy study (FIC/FBC index); format: cell-based, Acinetobacter baumannii; settings: in combination with P4075EC+EDTA
# Burkholderia strains = test: Checkerboard synergy study (FIC/FBC index); format: cell-based, Burkholderia cenocepacia; settings: in combination with P4075EC+EDTA
# [11] = share of 10 Stenotrophomonas strains with synergy
# [12] = share of 10 Acinetobacter strains with synergy
# [13] = share of 10 Burkholderia strains with synergy
compound,measurement,setting,value
CO/N=C(\C(=O)N[C@@H]1C(=O)N2C(C(=O)[O-])=C(C[N+]3(C)CCCC3)CS[C@H]12)c1csc(N)n1 [Cefepime],susceptibility of the majority of isolates by MIC90 values,[1],susceptible
same,MIC 50,"[1]; Haemophilus influenzae, all H. influenzae strains of Table 6, control antibiotics",0.125 µg/mL
same,QC MIC range,[2],C (QC MIC range is 0.5-2) μg/ml
same,MIC 50,Acinetobacter baumannii [3]; Acinetobacter,32 µg/mL
same,MIC 90,Acinetobacter baumannii [3]; Acinetobacter,>32 µg/mL
same,MIC 50,Acinetobacter baumannii [3]; Acinetobacter baumannii,32 µg/mL
same,MIC 90,Acinetobacter baumannii [3]; Acinetobacter baumannii,> 32 µg/mL
same,MIC 50,Pseudomonas aeruginosa [4]; Pseudomonas,2 µg/mL
same,MIC 90,Pseudomonas aeruginosa [4]; Pseudomonas,32 µg/mL
same,MIC 90,Burkholderia cenocepacia; Burkholderia,>32 µg/mL
same,MIC 50,Burkholderia cenocepacia; Burkholderia cenocepacia,32 µg/mL
same,MIC 90,Burkholderia cenocepacia; Burkholderia cenocepacia,> 32 µg/mL
same,MIC 50,[5]; Stenotrophomonas,>32 µg/mL
same,MIC 90,[5]; Stenotrophomonas,>32 µg/mL
same,MIC 90,[5]; Stenotrophomonas maltophilia,> 32 µg/mL
same,MIC 90,[6],≥ 2 µg/mL
same,MBC,[6]; read-out: MBC90,> 32 µg/mL
"O=C(O)CN(CCN(CC(=O)O)CC(=O)O)CC(=O)O [EDTA, ethylenediaminetetraacetic acid]",number of strains inhibited by EDTA alone,Acinetobacter baumannii [7]; A. baumannii (n = 5),3
same,number of strains inhibited by EDTA alone,[8]; S. maltophilia (n = 5),5
same,EDTA concentration inhibiting growth of H. influenzae,[1]; EDTA alone,≥ 2 mM
"NCc1ccc(S(N)(=O)=O)cc1 [Sulfamylon, mafenide acetate]",level of IL-10 or TGF-β in the infected burn wound,[9]; 32 hours,did not suppress
same,"dermal levels of proinflammatory cytokines IL-6, TNF-α, CINC-1 or CINC-3 compared to controls",[9]; infected burn wound,did not result in any significant alteration
same,myeloperoxidase,Myeloperoxidase,0.08 ± 0.02 µg/mL
Colistin,MIC Range,Pseudomonas aeruginosa [10],<=0.5-2
same,MIC Range,"Acinetobacter baumannii [7]; Acinetobacter baumannii (n = 5), nanoemulsions in the presence of 5 mM EDTA, in µg/mL",<=0.5-2
same,MIC Range,"[8]; Stenotrophomonas maltophilia (n = 5), nanoemulsions in the presence of 5 mM EDTA, in µg/mL",<=0.5-1
same,Overall synergy result,Stenotrophomonas strains; Stenotrophomonas,Synergy
same,FIC,Stenotrophomonas strains; isolate NB42,0.08
same,Synergy (FBC),Stenotrophomonas strains; isolate NB42,indifferent
same,Synergy (FIC),Stenotrophomonas strains; isolate NB42,yes
same,FBC,Stenotrophomonas strains; isolate NB43,0.15
same,FIC,Stenotrophomonas strains; isolate NB43,0.08
same,Synergy (FBC),Stenotrophomonas strains; isolate NB43,yes
same,Synergy (FIC),Stenotrophomonas strains; isolate NB43,yes
same,FBC,Stenotrophomonas strains; isolate NB44,0.57
same,Synergy (FBC),Stenotrophomonas strains; isolate NB44,indifferent
same,Synergy (FIC),Stenotrophomonas strains; isolate NB44,indifferent
same,FBC,Stenotrophomonas strains; isolate NB45,0.45
same,FIC,Stenotrophomonas strains; isolate NB45,0.04
same,Synergy (FBC),Stenotrophomonas strains; isolate NB45,yes
same,Synergy (FIC),Stenotrophomonas strains; isolate NB45,yes
same,Synergy (FBC),Stenotrophomonas strains; isolate Steno 1,yes and indifferent
same,Synergy (FIC),Stenotrophomonas strains; isolate Steno 1,yes and indifferent
same,Synergy (FBC),Stenotrophomonas strains; isolate Steno 2,yes and indifferent
same,Synergy (FIC),Stenotrophomonas strains; isolate Steno 2,yes
same,Synergy (FBC),Stenotrophomonas strains; isolate Steno 3,yes and indifferent
same,Synergy (FIC),Stenotrophomonas strains; isolate Steno 3,yes and indifferent
same,FBC,Stenotrophomonas strains; isolate Steno 4,1.61
same,Synergy (FBC),Stenotrophomonas strains; isolate Steno 4,indifferent
same,Synergy (FIC),Stenotrophomonas strains; isolate Steno 4,yes and indifferent
same,Synergy (FBC),Stenotrophomonas strains; isolate Steno 6,yes and indifferent
same,Synergy (FIC),Stenotrophomonas strains; isolate Steno 6,yes and indifferent
same,Synergy (FBC),Stenotrophomonas strains; isolate Steno 8,yes and indifferent
same,Synergy (FIC),Stenotrophomonas strains; isolate Steno 8,yes and indifferent
same,% FBC Synergy,Stenotrophomonas strains; [11],70%
same,% FIC Synergy,Stenotrophomonas strains; [11],90%
same,Overall synergy result,Acinetobacter strains; Acinetobacter,No Interference
same,FIC,Acinetobacter strains; isolate NB31,0.83
same,Synergy (FBC),Acinetobacter strains; isolate NB31,indifferent
same,Synergy (FIC),Acinetobacter strains; isolate NB31,indifferent
same,FIC,Acinetobacter strains; isolate NB32,0.58
same,Synergy (FBC),Acinetobacter strains; isolate NB32,indifferent
same,Synergy (FIC),Acinetobacter strains; isolate NB32,indifferent
same,FBC,Acinetobacter strains; isolate NB33,2
same,FIC,Acinetobacter strains; isolate NB33,0.33
same,Synergy (FBC),Acinetobacter strains; isolate NB33,indifferent
same,Synergy (FIC),Acinetobacter strains; isolate NB33,yes
same,FBC,Acinetobacter strains; isolate NB34,1.10
same,FIC,Acinetobacter strains; isolate NB34,0.46
same,Synergy (FBC),Acinetobacter strains; isolate NB34,indifferent
same,Synergy (FIC),Acinetobacter strains; isolate NB34,yes
same,FBC,Acinetobacter strains; isolate NB35,0.97
same,FIC,Acinetobacter strains; isolate NB35,0.72
same,Synergy (FBC),Acinetobacter strains; isolate NB35,indifferent
same,Synergy (FIC),Acinetobacter strains; isolate NB35,indifferent
same,FBC,Acinetobacter strains; isolate NB36,2
same,FIC,Acinetobacter strains; isolate NB36,0.56
same,Synergy (FBC),Acinetobacter strains; isolate NB36,indifferent
same,Synergy (FIC),Acinetobacter strains; isolate NB36,indifferent
same,FBC,Acinetobacter strains; isolate NB37,1.00
same,FIC,Acinetobacter strains; isolate NB37,0.63
same,Synergy (FBC),Acinetobacter strains; isolate NB37,indifferent
same,Synergy (FIC),Acinetobacter strains; isolate NB37,indifferent
same,FBC,Acinetobacter strains; isolate NB38,0.68
same,FIC,Acinetobacter strains; isolate NB38,0.77
same,Synergy (FBC),Acinetobacter strains; isolate NB38,indifferent
same,Synergy (FIC),Acinetobacter strains; isolate NB38,indifferent
same,FIC,Acinetobacter strains; isolate NB39,0.72
same,Synergy (FBC),Acinetobacter strains; isolate NB39,indifferent
same,Synergy (FIC),Acinetobacter strains; isolate NB39,indifferent
same,FBC,Acinetobacter strains; isolate NB40,0.91
same,FIC,Acinetobacter strains; isolate NB40,0.63
same,Synergy (FBC),Acinetobacter strains; isolate NB40,indifferent
same,Synergy (FIC),Acinetobacter strains; isolate NB40,indifferent
same,% FBC Synergy,Acinetobacter strains; [12],0%
same,% FIC Synergy,Acinetobacter strains; [12],20%
same,Overall synergy result,Burkholderia strains; Burkholderia,No Interference
same,Synergy (FBC),Burkholderia strains; isolate NB21,indifferent
same,Synergy (FIC),Burkholderia strains; isolate NB21,indifferent
same,Synergy (FBC),Burkholderia strains; isolate NB22,indifferent
same,Synergy (FIC),Burkholderia strains; isolate NB22,indifferent
same,FBC,Burkholderia strains; isolate NB23,2.00
same,Synergy (FBC),Burkholderia strains; isolate NB23,indifferent
same,Synergy (FIC),Burkholderia strains; isolate NB23,indifferent
same,FBC,Burkholderia strains; isolate NB24,2.00
same,Synergy (FBC),Burkholderia strains; isolate NB24,indifferent
same,Synergy (FIC),Burkholderia strains; isolate NB24,indifferent
same,FBC,Burkholderia strains; isolate NB25,3.00
same,FIC,Burkholderia strains; isolate NB25,2.00
same,Synergy (FBC),Burkholderia strains; isolate NB25,indifferent
same,Synergy (FIC),Burkholderia strains; isolate NB25,indifferent
same,FBC,Burkholderia strains; isolate NB26,0.04
same,FIC,Burkholderia strains; isolate NB26,0.56
same,Synergy (FBC),Burkholderia strains; isolate NB26,yes
same,Synergy (FIC),Burkholderia strains; isolate NB26,yes
same,Synergy (FBC),Burkholderia strains; isolate NB27,indifferent
same,Synergy (FIC),Burkholderia strains; isolate NB27,indifferent
same,FIC,Burkholderia strains; isolate NB28b,0.29
same,Synergy (FBC),Burkholderia strains; isolate NB28b,indifferent
same,Synergy (FIC),Burkholderia strains; isolate NB28b,yes
same,Synergy (FBC),Burkholderia strains; isolate NB29,indifferent
same,Synergy (FIC),Burkholderia strains; isolate NB29,indifferent
same,FIC,Burkholderia strains; isolate NB30,0.02
same,Synergy (FBC),Burkholderia strains; isolate NB30,indifferent
same,Synergy (FIC),Burkholderia strains; isolate NB30,yes
same,% FBC Synergy,Burkholderia strains; [13],10%
same,% FIC Synergy,Burkholderia strains; [13],30%
same,MBC 50,Acinetobacter baumannii [3]; 10 CF Acinetobacter isolates,4 µg/mL
same,MBC 90,Acinetobacter baumannii [3]; 10 CF Acinetobacter isolates,>16 µg/mL
same,MIC 50,Acinetobacter baumannii [3]; 10 CF Acinetobacter isolates,1 µg/mL
same,MIC 90,Acinetobacter baumannii [3]; 10 CF Acinetobacter isolates,1 µg/mL
same,MBC 90,Acinetobacter baumannii [3]; A. baumannii,> 16 µg/mL
same,MIC 90,Acinetobacter baumannii [3]; A. baumannii,1 µg/mL
same,MBC 50,Acinetobacter baumannii [3]; Acinetobacter,4 µg/mL
same,MBC 90,Acinetobacter baumannii [3]; Acinetobacter,>16 µg/mL
same,MIC 50,Acinetobacter baumannii [3]; Acinetobacter,1 µg/mL
same,MIC 90,Acinetobacter baumannii [3]; Acinetobacter,1 µg/mL
same,MBC 90,Pseudomonas aeruginosa [4]; P. aeruginosa,8 µg/mL
same,MIC 90,Pseudomonas aeruginosa [4]; P. aeruginosa,2 µg/mL
same,MBC 50,Pseudomonas aeruginosa [4]; Pseudomonas,4 µg/mL
same,MBC 90,Pseudomonas aeruginosa [4]; Pseudomonas,8 µg/mL
same,MIC 50,Pseudomonas aeruginosa [4]; Pseudomonas,2 µg/mL
same,MIC 90,Pseudomonas aeruginosa [4]; Pseudomonas,2 µg/mL
same,MBC 90,Burkholderia cenocepacia; B. cenocepacia,> 32 µg/mL
same,MIC 90,Burkholderia cenocepacia; B. cenocepacia,> 32 µg/mL
same,MBC 50,Burkholderia cenocepacia; Burkholderia,>32 µg/mL
same,MBC 90,Burkholderia cenocepacia; Burkholderia,>32 µg/mL
same,MIC 50,Burkholderia cenocepacia; Burkholderia,>32 µg/mL
same,MIC 90,Burkholderia cenocepacia; Burkholderia,>32 µg/mL
same,MIC,Burkholderia cenocepacia; CF Burkholderia isolate NB26,>32 µg/mL
same,MBC 90,[5]; S. maltophilia,> 32 µg/mL
same,MIC 90,[5]; S. maltophilia,> 32 µg/mL
same,MBC 50,[5]; Stenotrophomonas,>32 µg/mL
same,MBC 90,[5]; Stenotrophomonas,>32 µg/mL
same,MIC 50,[5]; Stenotrophomonas,16 µg/mL
same,MIC 90,[5]; Stenotrophomonas,>32 µg/mL
Gentamicin,MIC Range,Pseudomonas aeruginosa [10],<=2-4
